Measurements taken from US20250206761A1, “HALOINDOLE MACROCYCLIC COMPOUNDS FOR THE TREATMENT OF CANCER” (Hoffmann-La Roche Inc., priority 2022, published 2025).

Legend:
[1] = system: AGS (ATCC-CRL-1739) cells; assay: Cell viability assay, G12D (AGS); format: cell-based, human; conditions: Homo sapiens, KRAS cell viability, 72 hrs, Cell Counting Kit-8
Method: (§1) The purpose of this cellular assay was to determine the effects of test compounds on the proliferation of human cancer cell lines NCI-H358 (ATCC-CRL5807) cells, AGS (ATCC-CRL-1739) cells, SW620 (ATCC-CCL-227) over a 3-day treatment period by quantifying the amount of NADPH present at endpoint using Cell Counting Kit-8.
(§2) Cells were seeded at 5,000 cells/well (NCI-H358), 2,000 cells/well (AGS) 2,000 cells/well (SW620) in 96-well assay plates (Corning-3699) and incubated overnight. On the day of the assay, diluted compounds were then added in a final concentration of 0.5% DMSO. After 72 hrs incubation, a tenth of the volume of cell counting kit 8 (Dnjindo-CK04) was added into each well. Read the signal (OD450 minus OD650) using EnVision after 2 hrs incubation. IC50 was determined by fitting a 4-parameter sigmoidal concentration response model.

[2] = system: phosphorylation of ERK, KRAS G12C in NCJ-H358 cells; assay: pERK inhibition assay, KRAS G12C; format: cell-based, human; conditions: Homo sapiens, 4 hours
Method: (§3) This assay is to measure the ability of test compounds in inhibiting the phosphorylation of ERK, the downstream signaling of KRAS G12C in NCJ-H358 cells, KRAS G12D in AGS cells, and KRAS G12V in SW620. NCJ-H358 (ATCC-CRL5807) cells, AGS (ATCC-CRL-1739) cells, SW620 (ATCC-CCL-227) cells were all grown and maintained using RPMI-1640 medium (Thermo Fisher Scientific) with 10% fetal bovine serum and 1% penicillin/streptomycin. On the day prior to compound addition, cells were plated in tissue culture-treated 96 well plates (Corning-3699) at a density of 30,000 cell/well, 20,000 cell/well, 30,000 cell/well for NCJ-H358, AGS and SW620 respectively, and allowed for attachment overnight. Diluted compounds were then added in a final concentration of 0.5% DMSO. After 4 hours of incubation, the medium was removed, 100 μL of 4% formaldehyde was added, and the assay plates were incubated at room temperature for 20 minutes. The plates were then washed once with phosphate buffered saline (PBS), and permeabilized with 100 μL of chilled methanol for 10 minutes. Non-specific antibody binding to the plates was blocked using 50 μL 1×BSA blocking buffer (Thermo-37520, 10-fold dilution by Phosphate-Buffered Saline Tween (PBST) for at least 1 hour at room temperature.
(§4) The amount of phosphor-ERK was determined using an antibody specific for phosphorylated form of ERK. Primary antibody (pERK, CST-4370, Cell Signaling Technology) was diluted 1:300 in blocking buffer, with 50 μL aliquoted to each well, and incubated overnight at 4′° C. Cells was washed five times for 5 minutes with PBST. Secondary antibody ([…] anti-rabbit IgG, CST-7074, Cell Signaling Technology) was diluted 1:1000 in blocking buffer, and 50 μL was added to each well and incubated 1-2 hrs at room temperature. Cells was washed 5 times for 5 minutes with PBST, 100 μL TMB ELISA substrate (abcam-ab171523) were added and gently shake for 20 minutes. 50 μL stop solution (abcam-ab171529) were added, and then read the signal (OD450) by EnVision.
(§5) IC50 was determined by fitting a 4-parameter sigmoidal concentration response model.

KRAS G12C-BRAF complex = KRAS G12C-BRAF complex (Homo sapiens (Human), UniProt P01116+P62937, G12C); assay: KRAS-BRAF with CYPA (500 nM) interaction assay (TR-FRET), G12C; format: biochemical
Method: (§6) In this example, TR-FRET was also used to measure the compound or compound-CYPA dependent disruption of the KRAS G12C-BRAF complex. This protocol was also used to measure disruption of KRAS G12D or KRAS G12V binding to BRAF by a compound of the invention, respectively. In assay buffer containing 25 mM HEPES PH=7.4 (4-(2-hydroxyethyl)-1-piperazineethanesulfonic acid, Thermo, 15630080), 0.002% Tween20, 0.1% BSA, 100 mM NaCl, 5 mM MgCl2, 10 μM GMPPNP (Guanosine 5′-[β,γ-imido]triphosphate trisodium salt hydrate, Sigma, G0635), […] 384-well assay plate at final concentrations of 50 nM, 6.25 nM and 1 nM, respectively. Compound was present in plate wells as a 16-point 3-fold dilution series starting at a final concentration of 10 μM and incubated for 3 hours. A mixture of MAb Anti-6His-XL665 (Cisbio, 61HISXLB) and Mab anti-GST-TB cryptate (Cisbio, 61GSTTLB) was then added at a final concentration of 6.67 nM and 0.21 nM, respectively, and the plate was incubated for an additional 1.5 hours. TR-FRET signal was read on a PHERstar FSX microplate reader (Ex320 nm, Em 665/615 nm). Compounds that facilitate disruption of the KRAS-BRAF complex were identified as those eliciting a decrease in the TR-FRET ratio relative to DMSO control wells.

[3] = system: NCI-H358 (ATCC-CRL5807) cells; assay: Cell viability assay, G12C (NCI-H358); format: cell-based, human; conditions: Homo sapiens; KRAS cell viability, NCI-H358, 72 hrs, Cell Counting Kit-8
Method: as §1, §2

[4] = target: KRAS G12D binding to BRAF (Homo sapiens (Human), UniProt P01116+P62937, G12D); assay: KRAS-BRAF with CYPA (500 nM) interaction assay (TR-FRET), G12D; format: biochemical
Method: as §6

[5] = target: KRAS G12V binding to BRAF (Homo sapiens (Human), UniProt P01116+P62937, G12V); assay: KRAS-BRAF with CYPA (500 nM) interaction assay (TR-FRET), G12V; format: biochemical
Method: In this example, TR-FRET was also used to measure the compound or compound-CYPA dependent disruption of the KRAS G12C-BRAF complex. This protocol was also used to measure disruption of KRAS G12D or KRAS G12V binding to BRAF by a compound of the invention, respectively. In assay buffer containing 25 mM HEPES PH=7.4 (4-(2-hydroxyethyl)-1-piperazineethanesulfonic acid, Thermo, 15630080), 0.002% Tween20, 0.1% BSA, 100 mM NaCl, 5 mM MgCl2, 10 μM GMPPNP (Guanosine 5′-[β,γ-imido]triphosphate trisodium salt hydrate, Sigma, G0635), […], GMPPNP loaded 6His-KRAS proteins, and […], 6.25 nM and 1 nM, respectively. Compound was present in plate wells as a 16-point 3-fold dilution series starting at a final concentration of 10 μM and incubated for 3 hours. A mixture of MAb Anti-6His-XL665 (Cisbio, 61HISXLB) and Mab anti-GST-TB cryptate (Cisbio, 61GSTTLB) was then added at a final concentration of 6.67 nM and 0.21 nM, respectively, and the plate was incubated for an additional 1.5 hours. TR-FRET signal was read on a PHERstar FSX microplate reader (Ex320 nm, Em 665/615 nm). Compounds that facilitate disruption of the KRAS-BRAF complex were identified as those eliciting a decrease in the TR-FRET ratio relative to DMSO control wells.

SW620 (ATCC-CCL-227) = assay: Cell viability assay, G12V (SW620); format: cell-based, human; conditions: Homo sapiens, SW-620; KRAS cell viability, SW620, 72 hrs, Cell Counting Kit-8
Method: as §1, §2

[6] = system: phosphorylation of ERK, KRAS G12V in SW620; assay: pERK inhibition assay, KRAS G12V; format: cell-based, human; conditions: Homo sapiens, SW-620, SW620, 4 hours
Method: as §3, §4, §5

KRAS G12C-BRAF complex, sequence (P01116-2 other isoform, or with tags, fused parts or gaps G12C): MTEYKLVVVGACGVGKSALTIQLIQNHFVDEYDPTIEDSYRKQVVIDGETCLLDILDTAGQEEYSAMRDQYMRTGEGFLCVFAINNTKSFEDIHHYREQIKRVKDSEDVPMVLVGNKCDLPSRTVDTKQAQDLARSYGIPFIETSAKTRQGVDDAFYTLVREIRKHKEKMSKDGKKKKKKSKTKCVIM
KRAS G12C-BRAF complex, sequence (P62937 whole entry): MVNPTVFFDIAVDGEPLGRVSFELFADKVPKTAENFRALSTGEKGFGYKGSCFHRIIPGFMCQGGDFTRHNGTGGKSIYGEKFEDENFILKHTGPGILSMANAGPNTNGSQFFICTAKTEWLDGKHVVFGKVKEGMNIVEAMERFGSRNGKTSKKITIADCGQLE
KRAS G12D binding to BRAF, sequence (P01116-2 other isoform, or with tags, fused parts or gaps G12D): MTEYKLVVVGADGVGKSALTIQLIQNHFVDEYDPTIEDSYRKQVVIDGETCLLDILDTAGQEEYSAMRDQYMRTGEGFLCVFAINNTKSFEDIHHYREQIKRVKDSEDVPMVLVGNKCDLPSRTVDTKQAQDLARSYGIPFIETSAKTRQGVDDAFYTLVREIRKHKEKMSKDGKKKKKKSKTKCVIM
KRAS G12D binding to BRAF, sequence (P62937 whole entry): as the sequence (P62937 whole entry) above
KRAS G12V binding to BRAF, sequence (P01116-2 other isoform, or with tags, fused parts or gaps G12V): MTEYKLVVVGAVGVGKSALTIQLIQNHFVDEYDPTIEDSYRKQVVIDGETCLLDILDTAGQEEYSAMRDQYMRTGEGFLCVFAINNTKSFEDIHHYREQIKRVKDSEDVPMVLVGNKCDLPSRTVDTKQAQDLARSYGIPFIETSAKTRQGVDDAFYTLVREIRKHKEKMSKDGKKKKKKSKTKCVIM
KRAS G12V binding to BRAF, sequence (P62937 whole entry): as the sequence (P62937 whole entry) above

Structure (SMILES)	IC50 [1] [nM]	IC50 [2] [nM]	IC50 (KRAS G12C-BRAF complex) [nM]	IC50 [3] [nM]	IC50 [4] [nM]	IC50 [5] [nM]	IC50 (SW620 (ATCC-CCL-227)) [nM]	IC50 [6] [nM]
CO[C@@H](C)c1ncc(N2CCN(CC(F)(F)F)CC2)cc1-c1c2c3cc(c(F)cc3n1CC(F)(F)F)-c1csc(n1)C[C@H](NC(=O)[C@H](C(C)C)N1CC[C@@]3(CCN(C(=O)[C@H](F)Cl)C3)C1=O)C(=O)N1CCC[C@H](N1)C(=O)OCC(C)(C)C2 (atropisomer, axis not shown) [Example 43, (2S)-2-[(5R)-7-[(2R)-2-chloro-2-fluoro-acetyl]-1-oxo-2,7-diazaspiro[4.4]nonan-2-yl]-N-[(7S,13S)-24-fluoro-20-[2-[(1S)-1-methoxyethyl]-5-[4-(2,2,2-trifluoroethyl)piperazin-1-yl]-3-pyridyl]-17,17-dimethyl-8,14-dioxo-21-(2,2,2-trifluoroethyl)-15-oxa-4-thia-9,21,27,28-tetrazapentacyclo[17.5.2.1^2,5.1^9,13.0^22,26]octacosa-1(25),2,5(28),19,22(26),23-hexaen-7-yl]-3-methyl-butanamide]	67	6	22	< 1	2200	1690	171	44
CCn1c(-c2cc(N3CCN(C)CC3)cnc2[C@H](C)OC)c2c3cc(c(F)cc31)-c1csc(n1)C[C@H](NC(=O)[C@H](C(C)C)N(C)C(=O)C1(F)CCN(C(=O)[C@H](F)Cl)CC1)C(=O)N1CCC[C@H](N1)C(=O)OCC(C)(C)C2 (atropisomer, axis not shown; (M)) [Example 34, 1-[(2R)-2-chloro-2-fluoro-acetyl]-N-[(1S)-1-[[(7S,13S)-21-ethyl-24-fluoro-(20M)-20-[2-[(1S)-1-methoxyethyl]-5-(4-methylpiperazin-1-yl)-3-pyridyl]-17,17-dimethyl-8,14-dioxo-15-oxa-4-thia-9,21,27,28-tetrazapentacyclo[17.5.2.1^2,5.1^9,13.0^22,26]octacosa-1(25),2,5(28),19,22(26),23-hexaen-7-yl]carbamoyl]-2-methyl-propyl]-4-fluoro-N-methyl-piperidine-4-carboxamide]	43	2	47	< 1	909	724	40	12
CCn1c(-c2cc(N3CCN(CC(F)(F)F)CC3)cnc2[C@H](C)OC)c2c3cc(c(F)cc31)-c1csc(n1)C[C@H](NC(=O)[C@H](C(C)C)N1CC[C@@]3(CCN(C(=O)[C@H](F)Cl)C3)C1=O)C(=O)N1CCC[C@H](N1)C(=O)OCC(C)(C)C2 (atropisomer, axis not shown; (M)) [Example 35, (2S)-2-[(5R)-7-[(2R)-2-chloro-2-fluoro-acetyl]-1-oxo-2,7-diazaspiro[4.4]nonan-2-yl]-N-[(7S,13S)-21-ethyl-24-fluoro-(20M)-20-[2-[(1S)-1-methoxyethyl]-5-[4-(2,2,2-trifluoroethyl)piperazin-1-yl]-3-pyridyl]-17,17-dimethyl-8,14-dioxo-15-oxa-4-thia-9,21,27,28-tetrazapentacyclo[17.5.2.1^2,5.1^9,13.0^22,26]octacosa-1(25),2,5(28),19,22(26),23-hexaen-7-yl]-3-methyl-butanamide]	69	3	23	< 1	3220	> 10000	3530	50
